# Test results taken from patent publication US12371454B2, “Cyclic peptide compound having Kras inhibitory action” (priority 2019, dated 2025).
# Positions of bridges follow the written chain, without caps; N, C: chain ends. Non-standard residues stand in square brackets, D forms with d. Residues, ends and D or L forms follow the SMILES beside them. *: point of attachment. hPhe(3-Cl-4-CF3) = N[C@@H](CCc1ccc(C(F)(F)F)c(Cl)c1)C(=O)O; NMePhe(3-Cl) = CN[C@@H](Cc1cccc(Cl)c1)C(=O)O; NMePhe(4-Cl) = CN[C@@H](Cc1ccc(Cl)cc1)C(=O)O; hPhe(4-Cl) = N[C@@H](CCc1ccc(Cl)cc1)C(=O)O; NMeMet(O2) = CN[C@@H](CCS(C)(=O)=O)C(=O)O; NMeAla(cPent) = CN[C@@H](CC1CCCC1)C(=O)O; NMeGly(cPent) = CN[C@H](C(=O)O)C1CCCC1; Phe(3-F) = N[C@@H](Cc1cccc(F)c1)C(=O)O; Phe(3-I) = N[C@@H](Cc1cccc(I)c1)C(=O)O; Phe(4-Me) = Cc1ccc(C[C@H](N)C(=O)O)cc1; NMeGly(cBu) = CN[C@H](C(=O)O)C1CCC1; NMeCha = CN[C@@H](CC1CCCCC1)C(=O)O; NMeChg = CN[C@H](C(=O)O)C1CCCCC1; NMeF = CN[C@@H](Cc1ccccc1)C(=O)O; NMeE = CN[C@@H](CCC(=O)O)C(=O)O; NMeD = CN[C@@H](CC(=O)O)C(=O)O; NMeL = CN[C@@H](CC(C)C)C(=O)O; NMehSer = CN[C@@H](CCO)C(=O)O; NMeV = CN[C@H](C(=O)O)C(C)C; d(β3hA) = C[C@@H](N)CC(=O)O; NMeA = CN[C@@H](C)C(=O)O; NMeAib = CNC(C)(C)C(=O)O; Piperidide = C1CCN(*)CC1; Pyrrolidide = C1CCN(*)C1; Ac5c = NC1(C(=O)O)CCCC1; Aze = O=C(O)[C@@H]1CCN1; Sar = CNCC(=O)O
# Target: T1, Kras and SOS1 (biotin-tagged human Kras loaded with GDP, His-tagged human SOS1) (Homo sapiens, UniProt P01116, G12D)
# T1 construct: made in house; host or cells: E. coli (stated for Kras only)
# Test: Protein-protein interaction inhibition between Kras and SOS1 (KrasGl2D-SOS PPI) using AlphaScreen
# Type: binding
# Settings: AlphaScreen; biotin-tagged human Kras loaded with GDP, His-tagged human SOS1; read-out: KRAS G12D-SOS PPI IC50
# Summary of the method: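 Donor beads (nickel) hold His-SOS1; acceptor beads (streptavidin) hold biotin-Kras bound to GDP. Signal measured at 520-620 nm following 680 nm excitation.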
# T1 sequence (P01116 1-188 isoform P01116-2 G12D): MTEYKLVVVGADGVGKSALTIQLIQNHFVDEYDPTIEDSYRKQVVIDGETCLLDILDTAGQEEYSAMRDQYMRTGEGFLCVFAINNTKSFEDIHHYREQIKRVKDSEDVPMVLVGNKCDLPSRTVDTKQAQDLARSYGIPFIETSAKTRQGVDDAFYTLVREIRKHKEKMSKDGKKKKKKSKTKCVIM
row,Compound,IC50 [nM]
1,CC[C@H](C)[C@@H]1NC(=O)[C@H](CC(C)C)N(C)C(=O)C[C@@H](C(=O)N2CCCCC2)N(C)C(=O)[C@H](C2CCCCC2)N(C)C(=O)C2(CCCC2)NC(=O)[C@@H]2CCCN2C(=O)[C@H](CCc2ccc(C(F)(F)F)c(Cl)c2)NC(=O)CN(C)C(=O)[C@H](CCOC)N(C)C(=O)CN(C)C(=O)CN(C)C1=O [Compound 159] ([NMeL]I[Sar][Sar][NMehSer](Me)[Sar][hPhe(3-Cl-4-CF3)]P[Ac5c][NMeChg][NMeD]-Piperidide; lactam N-11),2.4
2,CC[C@H](C)[C@@H]1NC(=O)[C@H](CC(C)C)N(C)C(=O)C[C@@H](C(=O)N2CCCCC2)N(C)C(=O)[C@H](CCS(C)(=O)=O)N(C)C(=O)C2(CCCC2)NC(=O)[C@@H]2CCCN2C(=O)[C@H](CCc2ccc(C(F)(F)F)c(Cl)c2)NC(=O)CN(C)C(=O)[C@H](CC2CCCCC2)N(C)C(=O)CN(C)C(=O)CN(C)C1=O [Compound 162] ([NMeL]I[Sar][Sar][NMeCha][Sar][hPhe(3-Cl-4-CF3)]P[Ac5c][NMeMet(O2)][NMeD]-Piperidide; lactam N-11),230
3,CC[C@H](C)[C@@H]1NC(=O)[C@H](CC(C)C)N(C)C(=O)C[C@@H](C(=O)N2CCCCC2)N(C)C(=O)[C@H](CC(C)C)NC(=O)C(C)(C)N(C)C(=O)[C@H](Cc2ccc(C)cc2)NC(=O)[C@H](Cc2cccc(I)c2)NC(=O)CN(C)C(=O)[C@H](CC2CCCCC2)N(C)C(=O)CN(C)C(=O)CN(C)C1=O [Compound 166] ([NMeL]I[Sar][Sar][NMeCha][Sar][Phe(3-I)][Phe(4-Me)][NMeAib]L[NMeD]-Piperidide; lactam N-11),21
4,CC[C@H](C)[C@@H]1NC(=O)[C@H](CC(C)C)N(C)C(=O)C[C@@H](C(=O)N2CCCCC2)N(C)C(=O)[C@H](C(C)C)N(C)C(=O)C2(CCCC2)NC(=O)[C@@H]2CCCN2C(=O)[C@H](CCc2ccc(Cl)cc2)NC(=O)CN(C)C(=O)[C@H](CC2CCCC2)N(C)C(=O)CN(C)C(=O)CN(C)C1=O [Compound 167] ([NMeL]I[Sar][Sar][NMeAla(cPent)][Sar][hPhe(4-Cl)]P[Ac5c][NMeV][NMeD]-Piperidide; lactam N-11),58
5,CC[C@H](C)[C@@H]1NC(=O)[C@H](CC(C)C)N(C)C(=O)C[C@@H](C(=O)N2CCCCC2)N(C)C(=O)[C@H](CC(C)C)NC(=O)C(C)(C)N(C)C(=O)[C@H](Cc2ccc(OC)cc2)NC(=O)[C@H](Cc2cccc(I)c2)NC(=O)CN(C)C(=O)[C@H](CC2CCCCC2)N(C)C(=O)[C@@H]2CCN2C(=O)[C@H](C)N(C)C1=O [Compound 169] ([NMeL]I[NMeA][Aze][NMeCha][Sar][Phe(3-I)]Y(Me)[NMeAib]L[NMeD]-Piperidide; lactam N-11),16
6,CC[C@H](C)[C@@H]1NC(=O)[C@H](CC(C)C)N(C)C(=O)C[C@@H](C(=O)N(C)C)N(C)C(=O)[C@H](C2CCCC2)N(C)C(=O)C2(CCCC2)NC(=O)[C@H](Cc2cccc(Cl)c2)N(C)C(=O)[C@H](CCc2ccc(C(F)(F)F)c(Cl)c2)NC(=O)CN(C)C(=O)[C@H](CC2CCCCC2)N(C)C(=O)[C@@H]2CCN2C(=O)[C@H](C)N(C)C1=O [Compound 179] ([NMeL]I[NMeA][Aze][NMeCha][Sar][hPhe(3-Cl-4-CF3)][NMePhe(3-Cl)][Ac5c][NMeGly(cPent)][NMeD]-NMe2; lactam N-11),42
7,CC[C@H](C)[C@@H]1NC(=O)[C@H](CC(C)C)N(C)C(=O)C[C@@H](C(=O)N2CCCCC2)N(C)C(=O)[C@H](C(C)C)N(C)C(=O)C2(CCCC2)NC(=O)[C@@H]2CCCN2C(=O)[C@H](CCc2ccc(C(F)(F)F)c(Cl)c2)NC(=O)CN(C)C(=O)[C@H](CC2CCCCC2)N(C)C(=O)[C@@H]2CCN2C(=O)[C@H](CCC(=O)NC)N(C)C1=O [Compound 180] ([NMeL]I[NMeE](NHMe)[Aze][NMeCha][Sar][hPhe(3-Cl-4-CF3)]P[Ac5c][NMeV][NMeD]-Piperidide; lactam N-11),11
8,CC[C@H](C)[C@@H]1NC(=O)[C@H](CC(C)C)N(C)C(=O)C[C@@H](C)NC(=O)[C@H](C2CCC2)N(C)C(=O)C2(CCCC2)NC(=O)[C@@H]2CCCN2C(=O)[C@H](CCc2ccc(C(F)(F)F)c(Cl)c2)NC(=O)CN(C)C(=O)[C@H](CC2CCCCC2)N(C)C(=O)CN(C)C(=O)CN(C)C1=O [Compound 183] (cyclo([Ac5c][NMeGly(cBu)][d(β3hA)][NMeL]I[Sar][Sar][NMeCha][Sar][hPhe(3-Cl-4-CF3)]P)),26
9,CC[C@H](C)[C@@H]1NC(=O)[C@H](C)N(C)C(=O)C[C@@H](C(=O)N2CCCC2)NC(=O)[C@H](C(C)C)N(C)C(=O)[C@H](Cc2ccccc2)N(C)C(=O)[C@H](Cc2ccccc2)NC(=O)[C@H](Cc2cccc(F)c2)NC(=O)CN(C)C(=O)[C@H](Cc2ccc(Cl)cc2)N(C)C(=O)CN(C)C(=O)CN(C)C1=O [Compound 184] ([NMeA]I[Sar][Sar][NMePhe(4-Cl)][Sar][Phe(3-F)]F[NMeF][NMeV]D-Pyrrolidide; lactam N-11),320
10,CC[C@H](C)[C@@H]1NC(=O)[C@H](CC(C)C)N(C)C(=O)C[C@@H](C)NC(=O)[C@H](C(C)C)N(C)C(=O)C2(CCCC2)NC(=O)[C@@H]2CCCN2C(=O)[C@H](CCc2ccc(C(F)(F)F)c(Cl)c2)NC(=O)CN(C)C(=O)[C@H](CC2CCCCC2)N(C)C(=O)CN(C)C(=O)[C@@H]2CCCN2C1=O [Compound 185] (cyclo([Ac5c][NMeV][d(β3hA)][NMeL]IP[Sar][NMeCha][Sar][hPhe(3-Cl-4-CF3)]P)),170
